Series [1] deals with rats. To be noted: orally administered to rats; cited from earlier work.
Series [2] has as its system rats. In words: LD50, single oral dose administered to rats. The settings on record: orally administered to rats; versus sodium chloride.

Each structure is given as a SMILES string. Counter-ions that a name gives are not always drawn.

In the case of `C[N+](C)(C)CC(=O)[O-]` [glycine betaine, 1-carboxy-N,N,N-trimethylmethanaminium inner salt], the LD50 entry in the series on rats [1] is on record as “about 11,204 mg per kilogram of rat body we”. In addition, the “toxicity relative to ordinary table salt, as reflected by the oral rat LD50” value in the series with rats [2] is recorded as “more than three times less toxic”.

The values above are taken from patent US6602824B1, “Herbicidal composition and a method of using a naturally-occurring organic compound as a herbicide” (Greener Pastures Development Corp., priority 1999, dated 2003).
